Reference: US6468476B1, “Methods for using-co-regulated genesets to enhance detection and classification of gene expression patterns” (Rosetta Inpharmatics, Inc., priority 1998, dated 2002)

Tested on: genes regulated by the Gcn4 transcription factor
Experiment: Transcript response (DNA microarray) to a titration series of FK506, genes of the Gcn4 geneset
Type: cell-based, Saccharomyces cerevisiae
Description: Yeast (Saccharomyces cerevisiae, Strain YPH499, see, Sikorski and Hieter, 1989, A system of shuttle vectors and yeast host strains designated for efficient manipulation of DNA in Saccharomyces cerevisiae, Genetics 122:19-27) cells were grown in YAPD at 30° C. to an OD600 of 1.0 (±0.2), and total RNA prepared by breaking cells in phenol/chloroform and 0.1% SDS by standard procedures (Ausubel et al., 1995, Current Protocols in Molecular Biology, Greene Publishing and Wiley-Interscience, New York, Ch. 13). Poly(A)^+ RNA was selected by affinity chromatography on oligo-dT cellulose (New England Biolabs) essentially as described in Sambrook et al. (Molecular Cloning—A Laboratory Manual (2nd Ed.), Vol. 1, Cold Spring Harbor Laboratory, Cold Spring Harbor, N.Y., 1989). First strand cDNA synthesis was carried out with 2 μg poly(A)^+ RNA and SuperScript™ II reverse transcriptase (Gibco-BRL) according to the manufacturer's instructions with the following modifications. Deoxyribonucleotides were present at the following concentrations: dA, dG, and dC at 500 μM each, dT at 100 μM and either Cy3-dUTP or Cy5-dUTP (Amersham) at 100 μM. cDNA synthesis reactions were carried out at 42-44° C. for 90 minutes, after which RNA was degraded by the addition of 2 units of RNAse H, and the cDNA products were purified by two successive rounds of centrifugation dialysis using MICROCON-30 microconcentrators (Amicon) according to the manufacturer's recommendations.
Double-stranded DNA polynucleotides corresponding in sequence to each ORF in the S. cerevisiae genome encoding a polypeptide greater than 99 amino acids (based on the published yeast genomic sequence, e.g., Goffeau et al., 1996, Science 274:546-567) are made by polymerase chain reaction (PCR) amplification of yeast genomic DNA. Two PCR primers are chosen internal to each of the ORFs according to two criteria: (i) the amplified fragments are 300-800 bp and (ii) none of the fragments have a section of more than 10 consecutive nucleotides of sequence in common. Computer programs are used to aid in the design of the PCR primers. Amplification is carried out in 96 well microtitre plates. The resulting DNA fragments are printed onto glass microscope slides using the method of Shalon et al., 1996, Genome Research 6:639-645.
Fluorescently-labeled cDNAs (2-6 μg) are resuspended in 4×SSC plus 1 μg/μl tRNA as carrier and filtered using […] filters (Millipore, Bedford, Mass.). SDS is added to 0.3%, prior to heating to 100° C. for 2 minutes. Probes are cooled and immediately hybridized to the microarrays produced as described in Example 6.2, for 4 hours at 65° C. Non-hybridized probe is removed by washing in 1×SSC plus 0.1% SDS at ambient temperature for 1-2 minutes. Microarrays are scanned with a fluorescence laser-scanning device as previously described (Schena et al., 1995, Science 270:467-470; Schena et al., 1995, Proc. Natl. Acad. Sci. USA 93:[…]) and the results (including the positions of perturbations) are recorded.
Geneset number 3 in the clustering analysis result of FIG. 6 involves genes regulated by the Gcn4 transcription factor. This was verified via the literature and via multiple sequence alignment analysis of the regulatory regions 5′ to the individual genes (Stormo and Hartzell, 1989, Identifying protein binding sites from unaligned DNA fragments, Proc Natl Acad Sci 86:1183-1187; Hertz and Stormo, 1995, Identification of consensus patterns in unaligned DNA and protein sequences: a large-deviation statistical basis for penalizing gaps, Proc of 3rd Intl Conf on Bioinformatics and Genome Research, Lim and Cantor, eds., World Scientific Publishing Co., Ltd. Singapore, pp. 201-216). […] These 20 were used to define a geneset. Response profiles to a titration series of the drug FK506, which is known to hit this pathway at higher concentrations, were projected onto this geneset. […]

Question: Which results are given for `C=CC[C@@H]1/C=C(\C)C[C@H](C)C[C@H](OC)[C@H]2O[C@@](O)(C(=O)C(=O)N3CCCC[C@H]3C(=O)O[C@H](/C(C)=C/[C@@H]3CC[C@@H](O)[C@H](OC)C3)[C@H](C)[C@@H](O)CC1=O)[C@H](C)C[C@@H]2OC` [FK506]?
Answer: Geneset Average response (projected response of the 20-gene Gcn4 geneset) (FK506 0.1 μg/ml): 0.1728 standard deviations of Log10(Expression Ratio); Response of gene ARG1 (FK506 0.1 μg/ml): 0.2083 standard deviations of Log10(Expression Ratio); Response of gene ARG4 (FK506 0.1 μg/ml): 0.3585 standard deviations of Log10(Expression Ratio); Response of gene ARG5,6 (FK506 0.1 μg/ml): 0.1162 standard deviations of Log10(Expression Ratio); Response of gene ECM13 (FK506 0.1 μg/ml): 0.1269 standard deviations of Log10(Expression Ratio); Response of gene HIS3 (FK506 0.1 μg/ml): −0.3719 standard deviations of Log10(Expression Ratio); Response of gene HIS5 (FK506 0.1 μg/ml): 0.0292 standard deviations of Log10(Expression Ratio); Response of gene MET16 (FK506 0.1 μg/ml): 0.0225 standard deviations of Log10(Expression Ratio); Response of gene NCE3 (FK506 0.1 μg/ml): 0.0371 standard deviations of Log10(Expression Ratio); Response of gene PCL5 (FK506 0.1 μg/ml): 0.1418 standard deviations of Log10(Expression Ratio); Response of gene SNO1 (FK506 0.1 μg/ml): −0.2899 standard deviations of Log10(Expression Ratio); Response of gene SNZ1 (FK506 0.1 μg/ml): −0.7223 standard deviations of Log10(Expression Ratio); Response of gene SSU1 (FK506 0.1 μg/ml): 0.6257 standard deviations of Log10(Expression Ratio); Response of gene YBR047W (FK506 0.1 μg/ml): 0.0781 standard deviations of Log10(Expression Ratio); Response of gene YER024W (FK506 0.1 μg/ml): 0.1985 standard deviations of Log10(Expression Ratio); Response of gene YGL117W (FK506 0.1 μg/ml): 0.6309 standard deviations of Log10(Expression Ratio); Response of gene YGL184C (FK506 0.1 μg/ml): 0.0654 standard deviations of Log10(Expression Ratio); Response of gene YHR029C (FK506 0.1 μg/ml): −0.031 standard deviations of Log10(Expression Ratio); Response of gene YMR195W (FK506 0.1 μg/ml): 0.7615 standard deviations of Log10(Expression Ratio); Geneset Average response (projected response of the 20-gene Gcn4 geneset) (FK506 0.31 μg/ml): 0.6753 standard deviations of Log10(Expression Ratio); Response of gene ARG1 (FK506 0.31 μg/ml): 0.3436 standard deviations of Log10(Expression Ratio); Response of gene ARG4 (FK506 0.31 μg/ml): 0.3508 standard deviations of Log10(Expression Ratio); Response of gene ARG5,6 (FK506 0.31 μg/ml): 0.2722 standard deviations of Log10(Expression Ratio); Response of gene ARO3 (FK506 0.31 μg/ml): −0.1371 standard deviations of Log10(Expression Ratio); Response of gene ECM13 (FK506 0.31 μg/ml): 0.2197 standard deviations of Log10(Expression Ratio); Response of gene HIS3 (FK506 0.31 μg/ml): 0.1282 standard deviations of Log10(Expression Ratio); Response of gene HIS5 (FK506 0.31 μg/ml): 0.2175 standard deviations of Log10(Expression Ratio); Response of gene MET16 (FK506 0.31 μg/ml): −0.6269 standard deviations of Log10(Expression Ratio); Response of gene NCE3 (FK506 0.31 μg/ml): 0.1668 standard deviations of Log10(Expression Ratio); Response of gene PCL5 (FK506 0.31 μg/ml): 0.2767 standard deviations of Log10(Expression Ratio); Response of gene SNO1 (FK506 0.31 μg/ml): 0.0244 standard deviations of Log10(Expression Ratio); Response of gene SNZ1 (FK506 0.31 μg/ml): 0.0244 standard deviations of Log10(Expression Ratio); Response of gene SSU1 (FK506 0.31 μg/ml): 0.6655 standard deviations of Log10(Expression Ratio); Response of gene YBR047W (FK506 0.31 μg/ml): 0.1553 standard deviations of Log10(Expression Ratio); Response of gene YER024W (FK506 0.31 μg/ml): −0.0419 standard deviations of Log10(Expression Ratio); Response of gene YGL117W (FK506 0.31 μg/ml): 0.6768 standard deviations of Log10(Expression Ratio); Response of gene YGL184C (FK506 0.31 μg/ml): −0.0207 standard deviations of Log10(Expression Ratio); Response of gene YHR029C (FK506 0.31 μg/ml): 0.2438 standard deviations of Log10(Expression Ratio); Response of gene YMR195W (FK506 0.31 μg/ml): 0.3323 standard deviations of Log10(Expression Ratio); 'Geneset' response, significance (FK506 1.6 μg/ml): > 3 sigrna; Geneset Average response (projected response of the 20-gene Gcn4 geneset) (FK506 1.6 μg/ml): 3.3045 standard deviations of Log10(Expression Ratio); Response of gene ARG1 (FK506 1.6 μg/ml): 3.1765 standard deviations of Log10(Expression Ratio); Response of gene ARG4 (FK506 1.6 μg/ml): 1.6674 standard deviations of Log10(Expression Ratio); Response of gene ARG5,6 (FK506 1.6 μg/ml): 1.1844 standard deviations of Log10(Expression Ratio); Response of gene ARO3 (FK506 1.6 μg/ml): 0.2684 standard deviations of Log10(Expression Ratio); Response of gene CPA2 (FK506 1.6 μg/ml): 1.2429 standard deviations of Log10(Expression Ratio); Response of gene ECM13 (FK506 1.6 μg/ml): 0.5226 standard deviations of Log10(Expression Ratio); Response of gene HIS3 (FK506 1.6 μg/ml): 0.71 standard deviations of Log10(Expression Ratio); Response of gene HIS5 (FK506 1.6 μg/ml): 0.9802 standard deviations of Log10(Expression Ratio); Response of gene MET16 (FK506 1.6 μg/ml): −0.1885 standard deviations of Log10(Expression Ratio); Response of gene NCE3 (FK506 1.6 μg/ml): 1.2896 standard deviations of Log10(Expression Ratio); Response of gene PCL5 (FK506 1.6 μg/ml): 0.4127 standard deviations of Log10(Expression Ratio); Response of gene SNO1 (FK506 1.6 μg/ml): −0.4772 standard deviations of Log10(Expression Ratio); Response of gene SNZ1 (FK506 1.6 μg/ml): −0.4772 standard deviations of Log10(Expression Ratio); Response of gene SSU1 (FK506 1.6 μg/ml): 0.2883 standard deviations of Log10(Expression Ratio); Response of gene YBR047W (FK506 1.6 μg/ml): 0.2806 standard deviations of Log10(Expression Ratio); Response of gene YER024W (FK506 1.6 μg/ml): 0.4868 standard deviations of Log10(Expression Ratio); Response of gene YGL117W (FK506 1.6 μg/ml): 1.6276 standard deviations of Log10(Expression Ratio); Response of gene YGL184C (FK506 1.6 μg/ml): −0.0731 standard deviations of Log10(Expression Ratio); Response of gene YHR029C (FK506 1.6 μg/ml): 0.4421 standard deviations of Log10(Expression Ratio); Response of gene YMR195W (FK506 1.6 μg/ml): 1.6021 standard deviations of Log10(Expression Ratio)
